In patent publication US4405743A, “Pyrazolylpyrimidine derivatives” (Hokko Chemical Industry Co., Ltd., priority 1981, dated 1983):
In brackets after ≈: the same amount, converted by molar mass. Read-outs that look alike come from different tables or passages of the source.

Tests used:
[1] = test system: rice blast; conditions: Annual Report of the Takeda's Research Institute, Vol. 24, pages 250-258 (1965); cited from earlier work
[2] = test system: rice plant
[3] = test system: cucumber plant
[4] = test system: Pyricularia oryzae; type: in vivo, Pyricularia oryzae on rice plant (variety: Asahi); conditions: rice blast, curative treatment; sprayed liquid 200 ppm; 5 days after spraying
[5] = test system: Sphaerotheca friliginea; assay: Effect of controlling cucumber powdery mildew, Experimental Example 4; type: in vivo; conditions: sprayed liquid 200 ppm, 10 days after inoculation
Method: 10 ml of each of test liquids diluted to a predetermined concentration was sprayed over seedlings of a cucumber plant (variety: Sagami Hanpaku) grown up to the first leaf stage which has been soil cultured in an unglazed pot with a diameter of 9 cm in a green house. After allowing to stand overnight, the seedlings were sprayed for inoculation with a spore suspension of Sphaerotheca friliginea. Ten days after the inoculation, the rate of a lesion area (%) was checked and a control value was evaluated from the following equation. The degree of chemical injury against a cucumber plant was determined in the same manner as in Experimental Example.

[6] = Annual Report of the Takeda's Research Institute, Vol. 24, pages 250-258 (1965); cited from earlier work
[7] = test system: rice plant; conditions: blast prevention test, 200 ppm
[8] = test system: Cochliobolus miyabeanus; assay: Effect of controlling rice brown spot, Experimental Example 3; type: in vivo, Cochliobolus miyabeanus on rice plant (variety: Asahi); conditions: sprayed liquid 500 ppm, 5 days after inoculation
[9] = test system: rice plant; conditions: blast curative test, 200 ppm
[10] = test system: Pyricularia oryzae; type: in vivo, Pyricularia oryzae on rice plant (variety: Asahi); conditions: rice blast, prevention; 200 ppm; 5 days after inoculation
[11] = test system: Cochliobolus miyabeanus; assay: Antimicrobial activity (mycelium growth inhibition, PDA medium); type: cell-based; conditions: Bipolaris oryzae, read-out: ED50 value
[12] = test system: Diaporthe citri; assay: as above; type: cell-based; conditions: 24° C., read-out: ED50 value
Method: (§1) Experimental Example 5 (Test for Antimicrobial Activity Against Various Plant Phathogenic Fungi)
(§2) 1 ml of an acetone solution of each of test compounds and 20 ml of the PDA medium (50° C.) to prepare media containing the chemical in different concentrations, followed by charging into a petri dish with a diameter of 9 cm where it was solidified flat. On the central portion of the chemical-containing medium was inoculated a fungus-containing medium a piece of ager black-containing mycelia which was obtained by punching by means of a cork borer the tip portion of mycelia of each test fungus which had been cultured in advance in the PDA medium, followed by cultivating at 24° C. Two to six days after the cultivation, the diameter of the mycelia was measured and mycelium growth inhibiting rate was calculated from a comparison with that of a non-treated plot. The mycelium growth inhibiting rate was plotted on a logarithmic probability paper to determine an ED50 value.

[13] = test system: Phoma lingam; assay: as above; type: cell-based; conditions: Plenodomus lingam, 24° C., read-out: ED50 value
Method: as §1, §2

[14] = test system: Sclerotinia fructigena; assay: as above; type: cell-based; conditions: 24° C., read-out: ED50 value
Method: as §1, §2

[15] = test system: Phizoctonia solani; assay: as above; type: cell-based; conditions: 24° C., read-out: ED50 value
Method: as §1, §2

[16] = test system: Pellicularia sasakii; assay: as above; type: cell-based; conditions: 24° C., read-out: ED50 value
Method: as §1, §2

[17] = test system: Mycosphaerella melonis; assay: as above; type: cell-based; conditions: 24° C., read-out: ED50 value
Method: as §1, §2

[18] = test system: Helminthosporium gramineum; assay: as above; type: cell-based; conditions: 24° C., read-out: ED50 value
Method: as §1, §2

[19] = test system: Alternaria padwikii; assay: as above; type: cell-based; conditions: 24° C., read-out: ED50 value
Method: as §1, §2

[20] = test system: Botrytis cinerea; assay: as above; type: cell-based; conditions: 24° C., read-out: ED50 value
Method: as §1, §2

[21] = test system: Fusarium nivale; assay: as above; type: cell-based; conditions: Microdochium nivale, 24° C., read-out: ED50 value
Method: as §1, §2

[22] = test system: Curvularia sp.; assay: as above; type: cell-based; conditions: 24° C., read-out: ED50 value
Method: as §1, §2

[23] = test system: Endothia parasitica; assay: as above; type: cell-based; conditions: Cryphonectria parasitica, 24° C., read-out: ED50 value
Method: as §1, §2

[24] = test system: Sclerotinia sclerotiorum; assay: as above; type: cell-based; conditions: 24° C., read-out: ED50 value
Method: as §1, §2

[25] = test system: Penicillium digitatum; assay: as above; type: cell-based; conditions: 24° C., read-out: ED50 value
Method: as §1, §2

[26] = test system: Glomerella cingulata; assay: as above; type: cell-based; conditions: Colletotrichum gloeosporioides, 24° C., read-out: ED50 value
Method: as §1, §2

[27] = test system: Pyricularia oryzae; assay: microbe, parasite or virus in culture; type: cell-based; conditions: read-out: ED50 value

Row | SMILES | activity of controlling rice blast [1] | Degree of chemical injury ([2]; 500 ppm) | Degree of chemical injury ([3]; 200 ppm) | Control Value [4] | Control Value [5] | chemical injury [6] | Degree of chemical injury [7] | Control Value [8] | Degree of chemical injury [9] | Control Value [10] | also measured
1 | Cc1cc(O)nc(-n2nc(C)cc2C)n1 [Comparative Chemical 1, 2-(3,5-dimethyl-1-pyrazolyl)-4-methyl-6-hydroxypyrimidine, reference compound] | show an activity of controlling rice blast | 5 | 1 | 70% | 53.2% | violent chemical injury | 5 | 75% | 5 | 75% | –
2 | Cc1cc(SC#N)nc(-n2nc(C)cc2C)n1 [Comparative Chemical 3, 2-(3,5-dimethyl-1-pyrazolyl)-4-methyl-6-thiocyanopyrimidine] | – | – | – | – | – | violent chemical injury | – | – | – | – | –
3 | Cc1cc(C)n(-c2nc(O)cc(-c3ccccc3)n2)n1 [Comparative Chemical 2, 2-(3,5-dimethyl-1-pyrazolyl)-4-phenyl-6-hydroxypyrimidine, reference compound] | show an activity of controlling rice blast | 5 | 1 | 71% | 48.3% | violent chemical injury | 5 | 73% | 5 | 76% | –
4 | CCCCc1c(C)nc(-n2nc(C)cc2C)nc1OCC [Compound 41] | – | – | – | 100% | 94% | – | 0 | 100% | 0 | 100% | Degree of chemical injury ([2]; in vivo): 0; Degree of chemical injury ([3]; in vivo): 0; IC50 [11]: 1.4 µg/mL (≈ 4.85 µM); IC50 [12]: 2 µg/mL (≈ 6.93 µM); IC50 [13]: 2.6 µg/mL (≈ 9.02 µM); IC50 [14]: 1.5 µg/mL (≈ 5.2 µM); IC50 [15]: 1.4 µg/mL (≈ 4.85 µM); IC50 [16]: 1.1 µg/mL (≈ 3.81 µM); IC50 [17]: 0.7 µg/mL (≈ 2.43 µM); IC50 [18]: 2.8 µg/mL (≈ 9.71 µM); IC50 [19]: 0.7 µg/mL (≈ 2.43 µM); IC50 [20]: 4.5 µg/mL (≈ 15.6 µM); IC50 [21]: 0.2 µg/mL (≈ 0.693 µM); IC50 [22]: 1.6 µg/mL (≈ 5.55 µM); IC50 [23]: 4.6 µg/mL (≈ 16 µM); IC50 [24]: 3.8 µg/mL (≈ 13.2 µM); IC50 [25]: 1.1 µg/mL (≈ 3.81 µM); IC50 [26]: 4.1 µg/mL (≈ 14.2 µM); IC50 [27]: 0.01 µg/mL (≈ 0.0347 µM)
